Our source for the IC50 values is PMC10415228 (Saudi Pharmaceutical Journal : SPJ, 2023).

In brackets after ≈: the same amount, converted by molar mass.

The assay concerns trypsin (serine protease). Put plainly: serine protease. The format is biochemical.

In the case of `O=c1c(O)c(-c2ccc(O)c(O)c2)oc2cc(O)cc(O)c12` [Quercetin], the IC50 amounted to 295.44 µg/mL (≈ 978 µM).
